The target in one experiment is T1, HER2 INS YVMA (Homo sapiens, UniProt P04626, INS775YVMA).
T1 construct: purchased DPF
Nature of the experiment: Lance Kinase Activity Assay, Her2 Exon 20 InsYVMA. The following applies: biochemical Lance assay. As to the method: This protocol describes how the Lance Kinase Activity Assay was performed to determine IC50 values of compounds of general formula (I) against HER2 INS YVMA. The principle behind this enzymatic assay is based upon the phosphorylation of the Ulight-peptide substrate. It is detected by using a specific EU-labeled anti-phospho peptide antibody. The binding of the Eu labeled anti-phospho peptide antibody to the phosphorylated ULight labeled peptide gives rise to a FRET-signal. Binding of an inhibitor to the kinase prevents phosphorylation of the Ulight-substrate, resulting in a loss of FRET. In table 2 is summarized the relevant information for the LANCE assay. Table 2: Reagents, stock concentrations and final assay concentrations for Her2 INS YVMA.
The compounds of general formula (I) summarized in Table 3 were serial diluted from a 10 mM DMSO stock solution 1:3 over 8 steps in a total volume of 20 µl. For every sample, 8 µl of kinase-substrate mix was transferred into a suitable assay plate (e.g. Corning #3673). Compound was added via pintool transfer (10nl/well) using a Biomek FX robot (BeckmanCoulter). Reaction was started by addition of 2µl ATP working solution and mixed using variomag teleshaker (Thermo Fischer Scientific). After 1 h incubation at room temperature the reaction was stopped with 10µl detection mix containing the Eu-labeled phosphospecific antibody and 10mM EDTA. After a second incubation period of 1 h at room temperature the FRET signal was measured at 340 nm excitation, 665 nm and 615 nm emission (for the ULight-substrate and Eu-AB, respectively) with an Envision spectrophotometer (Perkin Elmer, Waltham, MA, USA) with 50 µs delay and 300 µs integration time. IC50 values were determined from the sigmoidal dose response curves with the software Quattro Workflow (Quattro GmbH, Munich, Germany).

Experiment [1] has as its system Her2 Exon 20 InsYVMA Ba/F3. Put plainly: CellTiter-Glo cell viability, Her2 Exon 20 InsYVMA Ba/F3. Format: cell-based. The note with it: Mus musculus, BaF3, 72 h, read-out: Her2 Exon 20 InsYVMA Ba/F3 CTG IC50. On the procedure:
(§1) The CellTiter-Glo Luminescent Cell Viability Assay (Promega) is a homogeneous method of determining the number of viable cells in culture. It is based on quantification of ATP, indicating the presence of metabolically active cells. Cells are seeded on day 1 at cell numbers that assure assay linearity and optimal signal intensity. After incubation for 24h in humidified chambers at 37°C and 5% CO2, compounds in DMSO are added at different concentrations. Cells are further incubated for 72 h at 37°C and 5% CO2. Cells treated with the compound vehicle DMSO are used as positive controls and cells treated with 10 µM Staurosporine serve as negative controls. At day 5 the CellTiter Glo Reagent is prepared according to the instructions of the kit (Promega Inc.): Reagent is mixed 1:1 with cell culture medium. Thereon, mixture and assay plates are equilibrated at room temperature for 20 min. Equal volumes of the reagent-medium-mixture is added to the volume of culture medium present in each well. The plates are mixed at ∼200 rpm for 2 minutes on an orbital shaker. The microplates are then incubated at room temperature for 10 minutes for stabilization of the luminescent signal. Following incubation the luminescence is recorded on a Victor microplate reader (Perkin Elmer) using a 200 ms integration time. The data is then analyzed with Excel using the XLFIT Plugin (dose response Fit 205) for IC50-determination. As quality control the Z'-factor is calculated from 16 positive and negative control values. Only assay results showing a Z'-factor ≥ 0.5 are used for further analysis.

The subject of another experiment is Cuto-17. Put plainly: CellTiter-Glo cell viability, Cuto-17. The note with it: CUTO17, 72 h, read-out: Cuto-17 CTG IC50. The experiment is classed as cell-based. On the procedure: as §1
Background: Cellular ATP, detected with luciferase, serves as a proxy for viable cell number.

A further experiment relates to A431. Put plainly: CellTiter-Glo cell viability, A431. Format: cell-based. The note with it: Homo sapiens, A-431, 72 h, read-out: A431 CTG IC50. As to the method: as §1
The target of the next experiment is EGFR T790M L858R (Homo sapiens, UniProt P00533, L858R/T790M). Nature of the experiment: Lance assay, EGFR T790M L858R. The following applies: biochemical Lance assay.
The test system of a further experiment is EGFR vIII Ba/F3. Nature of the experiment: CellTiter-Glo cell viability, EGFR vIII Ba/F3. The experiment is classed as cell-based. The note with it: Mus musculus, BaF3, 72 h, read-out: EGFR vIII Ba/F3 CTG IC50 /. As to the method:
as §1

The next experiment concerns the target EGFR wt (Homo sapiens, UniProt P00533). Nature of the experiment: Lance assay, EGFR wt. The following applies: biochemical Lance assay.
Another experiment concerns H1975. Nature of the experiment: CellTiter-Glo cell viability, H1975. Format: cell-based. The following applies: Homo sapiens, NCI-H1975, 72 h, read-out: H1975 CTG IC50. On the procedure: as §1
For experiment [2], the system named is EGFR Exon 20 InsNPH Ba/F3. Nature of the experiment: CellTiter-Glo cell viability, EGFR Exon 20 InsNPH Ba/F3. Format: cell-based. The following applies: Mus musculus, BaF3, 72 h, read-out: EGFR Exon 20 InsNPH Ba/F3 CTG IC50. On the procedure:
as §1

A value given as a limit tells only on which side of the number the result lay.

EGFR T790M L858R, sequence (P00533 25-1210 T790M/L858R): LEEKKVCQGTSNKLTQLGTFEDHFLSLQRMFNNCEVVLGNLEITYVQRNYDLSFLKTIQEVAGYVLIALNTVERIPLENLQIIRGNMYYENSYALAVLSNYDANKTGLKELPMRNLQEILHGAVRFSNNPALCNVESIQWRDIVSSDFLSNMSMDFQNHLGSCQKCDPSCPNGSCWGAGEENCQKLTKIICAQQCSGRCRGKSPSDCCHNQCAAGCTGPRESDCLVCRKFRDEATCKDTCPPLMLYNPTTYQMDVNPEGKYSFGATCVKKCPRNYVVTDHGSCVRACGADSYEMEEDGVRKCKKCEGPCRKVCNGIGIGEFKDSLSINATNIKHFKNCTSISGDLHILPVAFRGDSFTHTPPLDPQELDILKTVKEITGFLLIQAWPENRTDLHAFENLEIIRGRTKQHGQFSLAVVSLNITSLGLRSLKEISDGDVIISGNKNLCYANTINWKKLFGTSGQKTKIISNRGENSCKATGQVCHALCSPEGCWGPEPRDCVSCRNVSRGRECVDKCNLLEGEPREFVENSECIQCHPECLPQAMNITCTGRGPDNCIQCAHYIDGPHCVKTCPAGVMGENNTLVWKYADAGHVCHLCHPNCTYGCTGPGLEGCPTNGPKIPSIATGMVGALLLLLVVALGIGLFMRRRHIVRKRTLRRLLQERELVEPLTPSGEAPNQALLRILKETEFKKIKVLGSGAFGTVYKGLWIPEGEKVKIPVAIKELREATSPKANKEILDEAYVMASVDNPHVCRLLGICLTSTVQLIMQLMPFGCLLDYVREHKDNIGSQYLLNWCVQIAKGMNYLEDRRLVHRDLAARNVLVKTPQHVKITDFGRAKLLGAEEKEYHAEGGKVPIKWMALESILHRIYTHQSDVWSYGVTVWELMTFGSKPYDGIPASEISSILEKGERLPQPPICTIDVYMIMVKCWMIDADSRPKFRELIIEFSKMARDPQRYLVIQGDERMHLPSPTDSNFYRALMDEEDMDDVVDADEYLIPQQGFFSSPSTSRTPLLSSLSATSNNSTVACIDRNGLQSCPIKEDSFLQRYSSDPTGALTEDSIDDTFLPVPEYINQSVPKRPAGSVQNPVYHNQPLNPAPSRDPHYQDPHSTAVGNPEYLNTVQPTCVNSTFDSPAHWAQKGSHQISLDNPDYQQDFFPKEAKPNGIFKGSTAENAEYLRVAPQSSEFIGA
T1 sequence (P04626 with tags, fused parts or gaps INS775YVMA): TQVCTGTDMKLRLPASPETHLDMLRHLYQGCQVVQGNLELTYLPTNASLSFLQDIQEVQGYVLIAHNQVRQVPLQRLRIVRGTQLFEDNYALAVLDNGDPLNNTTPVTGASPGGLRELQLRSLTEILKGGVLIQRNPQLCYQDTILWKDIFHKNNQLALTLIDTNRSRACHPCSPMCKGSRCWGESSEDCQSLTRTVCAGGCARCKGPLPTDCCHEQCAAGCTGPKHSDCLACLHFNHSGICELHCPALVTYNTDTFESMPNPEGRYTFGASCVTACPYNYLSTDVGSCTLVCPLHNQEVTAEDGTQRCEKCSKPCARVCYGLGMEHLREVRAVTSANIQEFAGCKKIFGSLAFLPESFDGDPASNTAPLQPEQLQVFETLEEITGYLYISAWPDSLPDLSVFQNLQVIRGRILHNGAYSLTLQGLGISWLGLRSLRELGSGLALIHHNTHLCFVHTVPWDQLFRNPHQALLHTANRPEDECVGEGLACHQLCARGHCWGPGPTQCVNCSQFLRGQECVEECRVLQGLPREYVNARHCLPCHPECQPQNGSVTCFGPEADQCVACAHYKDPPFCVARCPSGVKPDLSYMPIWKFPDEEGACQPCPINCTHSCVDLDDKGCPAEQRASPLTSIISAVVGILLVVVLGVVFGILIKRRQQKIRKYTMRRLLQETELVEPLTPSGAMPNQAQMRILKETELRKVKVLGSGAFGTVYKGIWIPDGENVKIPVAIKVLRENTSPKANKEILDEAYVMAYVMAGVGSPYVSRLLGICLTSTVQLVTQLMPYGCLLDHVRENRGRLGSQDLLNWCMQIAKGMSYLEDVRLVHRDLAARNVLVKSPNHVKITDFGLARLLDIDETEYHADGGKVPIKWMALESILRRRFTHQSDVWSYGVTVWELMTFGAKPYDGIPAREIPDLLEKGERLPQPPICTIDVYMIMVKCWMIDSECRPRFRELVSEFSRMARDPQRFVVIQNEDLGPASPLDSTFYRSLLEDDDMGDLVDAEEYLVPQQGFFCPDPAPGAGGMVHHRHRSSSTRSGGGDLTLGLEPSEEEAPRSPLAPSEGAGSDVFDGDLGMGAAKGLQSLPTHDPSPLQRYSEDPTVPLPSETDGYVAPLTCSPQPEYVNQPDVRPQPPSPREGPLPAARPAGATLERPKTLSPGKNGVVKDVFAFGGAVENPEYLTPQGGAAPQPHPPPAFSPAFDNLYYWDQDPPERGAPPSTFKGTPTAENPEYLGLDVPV
EGFR wt, sequence (P00533 25-1210): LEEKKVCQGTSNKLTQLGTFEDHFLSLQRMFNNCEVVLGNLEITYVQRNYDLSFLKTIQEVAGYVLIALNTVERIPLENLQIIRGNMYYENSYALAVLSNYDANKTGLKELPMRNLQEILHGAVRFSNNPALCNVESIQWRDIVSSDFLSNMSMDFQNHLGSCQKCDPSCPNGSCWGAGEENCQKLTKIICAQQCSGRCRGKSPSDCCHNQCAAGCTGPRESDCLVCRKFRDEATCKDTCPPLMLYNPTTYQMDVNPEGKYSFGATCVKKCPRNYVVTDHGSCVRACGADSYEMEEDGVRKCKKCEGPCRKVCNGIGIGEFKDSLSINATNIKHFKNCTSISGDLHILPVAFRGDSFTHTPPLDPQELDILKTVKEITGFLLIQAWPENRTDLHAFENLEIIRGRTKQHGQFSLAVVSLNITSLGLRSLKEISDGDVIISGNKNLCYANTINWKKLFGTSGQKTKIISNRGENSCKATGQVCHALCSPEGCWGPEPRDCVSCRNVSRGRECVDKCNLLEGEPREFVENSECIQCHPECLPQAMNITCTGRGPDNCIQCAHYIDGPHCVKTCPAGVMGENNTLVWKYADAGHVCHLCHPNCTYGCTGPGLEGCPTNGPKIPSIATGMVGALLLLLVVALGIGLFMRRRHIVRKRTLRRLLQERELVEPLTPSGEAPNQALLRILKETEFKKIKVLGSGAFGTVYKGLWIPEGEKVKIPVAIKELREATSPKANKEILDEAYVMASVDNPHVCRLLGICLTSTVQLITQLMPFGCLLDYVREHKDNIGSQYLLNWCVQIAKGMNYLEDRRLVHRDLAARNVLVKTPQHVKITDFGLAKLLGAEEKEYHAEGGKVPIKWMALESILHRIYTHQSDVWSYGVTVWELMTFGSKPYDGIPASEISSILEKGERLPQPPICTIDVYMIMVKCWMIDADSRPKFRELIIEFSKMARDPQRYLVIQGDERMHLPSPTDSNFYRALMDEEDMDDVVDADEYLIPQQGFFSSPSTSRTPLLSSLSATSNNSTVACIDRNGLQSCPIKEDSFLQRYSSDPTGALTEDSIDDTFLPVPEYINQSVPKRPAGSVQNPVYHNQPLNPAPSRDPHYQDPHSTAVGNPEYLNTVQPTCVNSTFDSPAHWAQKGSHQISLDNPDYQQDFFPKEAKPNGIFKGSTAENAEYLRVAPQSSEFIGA

On to `C=CC(=O)Nc1cc(-c2c(-c3cnn(C(C)C)c3)[nH]c3ncc(C(=O)OC(C)C)c(C)c23)ccc1C` [Example 13, isopropyl 3-(3-acrylamido-4-methylphenyl)-2-(1-isopropyl-1 H-pyrazol-4-yl)-4-methyl-1H-pyrrolo[2,3-b]pyridine-5-carboxylate], for which the IC50 at HER2 INS YVMA lay within 100 to 500 nM; in [1], 100 to 500 nM; with Cuto-17, 100 to 500 nM; in the experiment on A431, 1000 to 10000 nM; against EGFR T790M L858R it was 50 to 100 nM; in the experiment on EGFR vIII Ba/F3 it was 100 to 500 nM. The figures for the IC50 (against EGFR wt; in the experiment on H1975; in [2]) were no more than 50 nM, 100 to 500 nM and no more than 50 nM, respectively.
Regarding `C=CC(=O)Nc1cc(-c2c(-c3cnn(C4CCC4)c3)[nH]c3ncc(C(=O)OC(C)C)c(C)c23)ccc1C` [Example 16, isopropyl 3-(3-acrylamido-4-methylphenyl)-2-(1-cyclobutyl-1 H-pyrazol-4-yl)-4-methyl-1H-pyrrolo[2,3-b]pyridine-5-carboxylate], the IC50 against HER2 INS YVMA lay within 500 to 1000 nM; in [1], 100 to 500 nM; with Cuto-17 it was 500 to 1000 nM; in the experiment on A431 it was 1000 to 10000 nM; against EGFR T790M L858R, 100 to 500 nM; in the experiment on EGFR vIII Ba/F3, 100 to 500 nM. In addition, the IC50 against EGFR wt was no more than 50 nM; in the experiment on H1975, 500 to 1000 nM; in [2] it was 100 to 500 nM.
With `C=CC(=O)Nc1cc(-c2c(-c3cnn(C)c3)[nH]c3ncc(C(=O)OC(C)C)cc23)cc(F)c1C` [Example 2, Isopropyl 3-(3-acrylamido-5-fluoro-4-methylphenyl)-2-(1-methyl-1H-pyrazol-4-yl)-1H-pyrrolo[2,3-b]pyridine-5-carboxylate 2,2,2-trifluoroacetate], the IC50 is no more than 50 nM against HER2 INS YVMA; 100 to 500 nM in [1]; 100 to 500 nM with Cuto-17; 1000 to 10000 nM in the experiment on A431; no more than 50 nM at EGFR T790M L858R; no more than 50 nM in the experiment with EGFR vIII Ba/F3. Further, the IC50 is no more than 50 nM on EGFR wt, 100 to 500 nM in the experiment with H1975 and 100 to 500 nM in experiment [2].
Take `C=CC(=O)Nc1cc(-c2c(-c3cnn(C)c3)[nH]c3ncc(OCC)cc23)cc(F)c1C` [Example 3, N-(5-(5-ethoxy-2-(1-methyl-1H-pyrazol-4-yl)-1H-pyrrolo[2,3-b]pyridin-3-yl)-3-fluoro-2-methylphenyl)acrylamide 2,2,2-trifluoroacetate]: the IC50 was no more than 50 nM against HER2 INS YVMA; 100 to 500 nM in [1]; no more than 50 nM in the experiment with Cuto-17; 1000 to 10000 nM in the experiment with A431; no more than 50 nM on EGFR T790M L858R; no more than 50 nM in the experiment with EGFR vIII Ba/F3. The figures for the IC50 (on EGFR wt; with H1975; in experiment [2]) were no more than 50 nM, 100 to 500 nM and 50 to 100 nM, respectively.
Consider `C=CC(=O)Nc1cc(-c2c(-c3cnn(CCOC)c3)[nH]c3ncc(C(=O)OC(C)C)c(C)c23)ccc1C` [Example 11, isopropyl 3-(3-acrylamido-4-methylphenyl)-2-(1-(2-methoxyethyl)-1 H-pyrazol-4-yl)-4-methyl-1 H-pyrrolo[2,3-b]pyridine-5-carboxylate], for which the IC50 on HER2 INS YVMA was no more than 50 nM; in experiment [1], 100 to 500 nM; in the experiment with Cuto-17, 100 to 500 nM; in the experiment with A431, 1000 to 10000 nM; against EGFR T790M L858R, no more than 50 nM; in the experiment on EGFR vIII Ba/F3, 100 to 500 nM. The IC50 was no more than 50 nM at EGFR wt, 500 to 1000 nM with H1975 and 100 to 500 nM in [2].
Consider `C=CC(=O)Nc1cc(-c2c(-c3cnn(C4CC4)c3)[nH]c3ncc(C(=O)OC(C)C)c(C)c23)ccc1C` [Example 10, isopropyl 3-(3-acrylamido-4-methylphenyl)-2-(1-cyclopropyl-1 H-pyrazol-4-yl)-4-methyl-1 H-pyrrolo[2,3-b]pyridine-5-carboxylate], for which the IC50 was in the range of 50 to 100 nM against HER2 INS YVMA; 100 to 500 nM in experiment [1]; 100 to 500 nM with Cuto-17; 1000 to 10000 nM in the experiment with A431; 50 to 100 nM at EGFR T790M L858R; 100 to 500 nM in the experiment on EGFR vIII Ba/F3. Further, the IC50 on EGFR wt was no more than 50 nM; in the experiment with H1975, 500 to 1000 nM; in [2] it was 50 to 100 nM.
As for `C=CC(=O)Nc1cc(-c2c(-c3cnn(CCC)c3)[nH]c3ncc(C(=O)OC(C)C)c(C)c23)ccc1C` [Example 14, isopropyl 3-(3-acrylamido-4-methylphenyl)-4-methyl-2-(1-propyl-1 H-pyrazol-4-yl)-1H-pyrrolo[2,3-b]pyridine-5-carboxylate], the IC50 at HER2 INS YVMA fell in the range of 100 to 500 nM; in experiment [1], 100 to 500 nM; in the experiment on Cuto-17, 100 to 500 nM; in the experiment on A431 it was 1000 to 10000 nM; at EGFR T790M L858R it was 50 to 100 nM; in the experiment on EGFR vIII Ba/F3, 100 to 500 nM. Further, the IC50 against EGFR wt was no more than 50 nM; in the experiment on H1975 it was 100 to 500 nM; in [2] it was 50 to 100 nM.
With `C=CC(=O)Nc1cc(-c2c(-c3cnn(CCN4CCOCC4)c3)[nH]c3ncc(C(=O)OC(C)C)c(C)c23)ccc1C` [Example 17, isopropyl 3-(3-acrylamido-4-methylphenyl)-4-methyl-2-(1-(2-morpholinoethyl)-1 H-pyrazol-4-yl)-1 H-pyrrolo[2,3-b]pyridine-5-carboxylate], the IC50 is no more than 50 nM at HER2 INS YVMA; 100 to 500 nM in [1]; 100 to 500 nM with Cuto-17; 1000 to 10000 nM in the experiment with A431; no more than 50 nM against EGFR T790M L858R; 100 to 500 nM in the experiment on EGFR vIII Ba/F3. Moreover, the IC50 at EGFR wt was no more than 50 nM; in the experiment with H1975 it was 500 to 1000 nM; in experiment [2], 100 to 500 nM.
For `C=CC(=O)Nc1cc(-c2c(-c3cn[nH]c3)[nH]c3ncc(C(=O)OC(C)C)c(C)c23)ccc1C` [Example 20, isopropyl 3-(3-acrylamido-4-methylphenyl)-4-methyl-2-(1 H-pyrazol-4-yl)-1 H-pyrrolo[2,3-b]pyridine-5-carboxylate], the IC50 was 50 to 100 nM against HER2 INS YVMA; 500 to 1000 nM in experiment [1]; 500 to 1000 nM with Cuto-17; 1000 to 10000 nM with A431; no more than 50 nM against EGFR T790M L858R; 100 to 500 nM in the experiment with EGFR vIII Ba/F3. In addition, the values for the IC50 (at EGFR wt; with H1975; in [2]) were no more than 50 nM, 1000 to 10000 nM and 100 to 500 nM, respectively.
For the compound `C=CC(=O)Nc1cc(-c2c(-c3cnn(CC)c3)[nH]c3ncc(C(=O)OC(C)C)cc23)ccc1C` [Example 6, isopropyl 3-(3-acrylamido-4-methylphenyl)-2-(1-ethyl-1H-pyrazol-4-yl)-1H-pyrrolo[2,3-b]pyridine-5-carboxylate], the IC50 at HER2 INS YVMA was no more than 50 nM; in experiment [1], 100 to 500 nM; in the experiment on Cuto-17, 500 to 1000 nM; in the experiment with A431, 1000 to 10000 nM; at EGFR T790M L858R, no more than 50 nM; with EGFR vIII Ba/F3, 100 to 500 nM. Besides, the IC50 at EGFR wt is no more than 50 nM; with H1975, 500 to 1000 nM; in experiment [2] it was 100 to 500 nM.

These data come from patent EP3868759A1, “2,3,5-SUBSTITUTED PYRROLO[2,3-B]PYRIDINES AS ERBB MODULATORS USEFUL FOR TREATING CANCER” (PearlRiver Bio GmbH, priority 2020, dated 2021).
